Assays:
[1] = tested on: P-gp (MDR1); assay: MDCK-MDR1 assay (permeability/efflux); format: in vitro ADME; conditions: dog, Papp BA/Papp AB, 60-minute incubation, Pgp substrate when ≧2
Protocol: The permeability of the test compounds was assessed in MDCK-MDR1 cells that were cultured to confluency (4-6 days) in a 96 transwell plate. Test compounds were diluted with the transport buffer (HBSS+1% BSA) to a concentration of 0.5 μM and applied to the apical or basolateral side of the cell monolayer. Permeation of the test compounds from A to B direction or B to A direction was determined in triplicate over a 60-minute incubation time at 37° C. and 5% CO2 with a relative humidity of 95%. Test compounds were quantified by LC-MS/MS analysis based on the peaks area ratios of analyte/IS in both the receiver and donor wells of the transwell plate.
The apparent permeability coefficient Papp (cm/s) was calculated using the equation: Papp=(dCr/dt)×Vr/(A×C0)
Where dCr/dt is the cumulative concentration of compound in the receiver chamber as a function of time (μM/s); Vr is the solution volume in the receiver chamber (0.05 mL on the apical side; 0.25 mL on the basolateral side); A is the surface area for the transport, i.e. 0.0804 cm^2 for the area of the monolayer; CO is the initial concentration in the donor chamber (μM).
Compounds are classified Pgp substrates when efflux ratio (Papp BA/Papp AB) is ≧2.

[2] = target: human BACE1 (Homo sapiens (Human), UniProt P56817); assay: BACE1 binding assay (SPA-based radioligand binding); conditions: pH 4.5, Ki calculated from IC50
Protocol: The binding assay was performed as SPA-based assay using a biotinylated form of human BACE1 recombinantly expressed and subsequently purified from Freestyle HEK293 cells. The binding assay was run in a 50 mM sodium acetate buffer, pH 4.5 containing 50 mM NaCl and 0.03% Tween-20 in white clear bottom 384 plates (Corning #3653). 10 nM (final concentration) radioligand ([^3H]—N-((1S,2R)-1-benzyl-3-cyclopropylamino-2-hydroxy-propyl)-5-(methanesulfonyl-methyl-amino)-N—((R)-1-phenyl-ethyl)-isophthalamide) (TRQ11569 purchased from GE Healthcare) was mixed with test compound at a given concentration, 6 nM (final concentration) human BACE1 and 25 μg Streptavidin coated PVT core SPA beads (RPNQ0007, GE Healthcare Life Sciences) in a total volume of 40 μl. Several concentrations of each test compound were tested in the assay for IC50 determination. The plates were incubated for one hour at room temperature and counted in a Wallac Trilux counter. Total and non-specific binding were determined using buffer and 1 μM (final concentration) of the high affinity BACE1 reference inhibitor (S)-6-[3-chloro-5-(5-prop-1-ynyl-pyridin-3-yl)-thiophen-2-yl]-2-imino-3,6-dimethyl-tetrahydro-pyrimidin-4-one, respectively. For each test compound, a IC50 value (the concentration mediating 50% inhibition of the specific binding of the radioligand) was determined from concentration-response curve and used to calculate the Ki from the equation Ki=IC50/(1+L/Kd), where L and Kd are the final concentration of the radioligand used in the assay and the dissociation constant of the radioligand, respectively. The Kd of the radioligand was determined from saturation binding experiments.

Chain of human BACE1 (P56817 46-501): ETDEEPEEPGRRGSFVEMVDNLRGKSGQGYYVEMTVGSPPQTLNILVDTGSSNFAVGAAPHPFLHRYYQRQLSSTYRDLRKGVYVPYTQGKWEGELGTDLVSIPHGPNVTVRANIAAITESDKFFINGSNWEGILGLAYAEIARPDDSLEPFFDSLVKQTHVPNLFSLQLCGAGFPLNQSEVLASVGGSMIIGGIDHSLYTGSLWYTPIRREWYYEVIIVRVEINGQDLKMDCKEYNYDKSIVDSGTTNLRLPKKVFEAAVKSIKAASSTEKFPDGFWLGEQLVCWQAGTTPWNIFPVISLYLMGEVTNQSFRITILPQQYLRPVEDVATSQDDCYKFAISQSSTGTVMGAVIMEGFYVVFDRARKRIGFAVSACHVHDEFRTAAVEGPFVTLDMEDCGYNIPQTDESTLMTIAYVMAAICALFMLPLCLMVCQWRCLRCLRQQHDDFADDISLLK

Compound | efflux ratio at 60 min, 0.5 μM [1] | Ki [2] [nM]
NC1=N[C@@](c2cc(NC(=O)c3ccc(Cl)cn3)ccc2F)(C(F)F)C(F)(F)CC1 [Compound 1, (S)—N-(3-(6-amino-2-(difluoromethyl)-3,3-difluoro-2,3,4,5-tetrahydropyridin-2-yl)-4-fluorophenyl)-5-chloropicolinamide] | 1.16 | 18
NC1=N[C@@](c2cc(NC(=O)c3ccc(F)cn3)ccc2F)(C(F)F)C(F)(F)CC1 [Compound 2, (S)—N-(3-(6-amino-2-(difluoromethyl)-3,3-difluoro-2,3,4,5-tetrahydropyridin-2-yl)-4-fluorophenyl)-5-fluoropicolinamide] | 1.75 | 23
Cc1nc(C(=O)Nc2ccc(F)c([C@@]3(C(F)F)N=C(N)CCC3(F)F)c2)co1 [Compound 4, (S)—N-(3-(6-amino-2-(difluoromethyl)-3,3-difluoro-2,3,4,5-tetrahydropyridin-2-yl)-4-fluorophenyl)-2-methyloxazole-4-carboxamide] | 4.01 | 20
NC1=N[C@@](c2cc(NC(=O)c3cnc(C(F)F)cn3)ccc2F)(C(F)F)C(F)(F)CC1 [Compound 6, (S)—N-(3-(6-amino-2-(difluoromethyl)-3,3-difluoro-2,3,4,5-tetrahydropyridin-2-yl)-4-fluorophenyl)-5-(difluoromethyl)pyrazine-2-carboxamide] | 1.36 | 20
N#Cc1ccc(C(=O)Nc2ccc(F)c([C@@]3(C(F)F)N=C(N)CCC3(F)F)c2)nc1 [Compound 7, (S)—N-(3-(6-amino-2-(difluoromethyl)-3,3-difluoro-2,3,4,5-tetrahydropyridin-2-yl)-4-fluorophenyl)-5-cyanopicolinamide] | 2.43 | 7.4
Cc1csc(C(=O)Nc2ccc(F)c([C@@]3(C(F)F)N=C(N)CCC3(F)F)c2)n1 [Compound 8, (S)—N-(3-(6-amino-2-(difluoromethyl)-3,3-difluoro-2,3,4,5-tetrahydropyridin-2-yl)-4-fluoro-phenyl)-4-methylthiazole-2-carboxamide] | 0.92 | 71
COc1cnc(C(=O)Nc2ccc(F)c([C@@]3(C(F)F)N=C(N)CCC3(F)F)c2)nc1 [Compound 9, (S)—N-(3-(6-amino-2-(difluoromethyl)-3,3-difluoro-2,3,4,5-tetrahydropyridin-2-yl)-4-fluorophenyl)-5-methoxypyrimidine-2-carboxamide] | 11 | 6.9
COc1cnc(C(=O)Nc2ccc(F)c([C@@]3(C(F)F)N=C(N)CCC3(F)F)c2)c(C)n1 [Compound 10, (S)—N-(3-(6-amino-2-(difluoromethyl)-3,3-difluoro-2,3,4,5-tetrahydropyridin-2-yl)-4-fluorophenyl)-5-methoxy-3-methylpyrazine-2-carboxamide] | 0.98 | 16
Cc1cc(C#N)cnc1C(=O)Nc1ccc(F)c([C@@]2(C(F)F)N=C(N)CCC2(F)F)c1 [Compound 11, (S)—N-(3-(6-amino-2-(difluoromethyl)-3,3-difluoro-2,3,4,5-tetrahydropyridin-2-yl)-4-fluorophenyl)-5-cyano-3-methylpicolinamide] | 2.68 | 7.8
NC1=N[C@@](c2cc(NC(=O)c3ccc(Br)cn3)ccc2F)(C(F)F)C(F)(F)CC1 [Compound 12, (S)—N-(3-(6-amino-2-(difluoromethyl)-3,3-difluoro-2,3,4,5-tetrahydropyridin-2-yl)-4-fluorophenyl)-5-bromopicolinamide] | 1.31 | 6.1
